Measured values as given in ChEMBL document CHEMBL3272160, “Synthesis and some pharmacological properties of [1-(L-2-hydroxy-3-mercaptopropanoic acid), 4-threonine]oxytocin (hydroxy [4-thr]oxytocin), a peptide with strikingly high oxytocic potency and of [1-(L-2-hydroxy-3-mercaptopropanoic acid)]oxytocin (hydroxy-oxytocin)” (J Med Chem, 1976).
*1 amine or outer side, *2 acyl side, *3 side chain or, on linkers, in order; H or OH if unused. Where a SMILES comes first, the peptide text is derived from it. Bridges are numbered along the chain shown (N, C = ends). [ ]: non-standard residue; d: D form. Abu(4-yl) = O=C([C@H](CC[*:3])N[*:1])[*:2]; X1 = O=C([C@@H](O)CS[*:2])[*:1]; X2 = O=C(CCC[*:2])[*:1]; Mpa = O=C(O)CCS

How the values were obtained:
Oryctolagus cuniculus = organism: Oryctolagus cuniculus; test: Oxytocic activity in rabbit assessed as milk ejection; format: functional
[1] = biological target: T1, Oxytocin receptor (Rattus norvegicus) (UniProt P70536); test: Activity at oxytocin receptor in rat uterus; format: tissue-based
T1 sequence (whole entry): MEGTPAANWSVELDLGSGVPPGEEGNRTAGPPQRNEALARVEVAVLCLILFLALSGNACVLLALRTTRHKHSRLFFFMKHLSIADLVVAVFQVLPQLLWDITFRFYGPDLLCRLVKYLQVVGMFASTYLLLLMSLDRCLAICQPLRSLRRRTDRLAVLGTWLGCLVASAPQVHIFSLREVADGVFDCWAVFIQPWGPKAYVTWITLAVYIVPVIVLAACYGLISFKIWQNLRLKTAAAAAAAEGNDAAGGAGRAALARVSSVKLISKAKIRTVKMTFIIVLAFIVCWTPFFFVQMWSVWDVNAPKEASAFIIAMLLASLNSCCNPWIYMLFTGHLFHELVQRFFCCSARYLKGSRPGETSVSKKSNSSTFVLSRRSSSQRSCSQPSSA

[2] = biological target: T1, Oxytocin receptor (Rattus norvegicus); test: Activity at oxytocin receptor in rat uterus in presence of 0.5 mM Mg2+; format: tissue-based
[3] = biological target: T1, Oxytocin receptor (Rattus norvegicus); test: Activity at oxytocin receptor in rat uterus relative to oxytocin; format: tissue-based
Rattus norvegicus [4] = organism: Rattus norvegicus; test: Antidiuretic activity in rat; format: ADME, organism-based, Urine; details: in vivo
[5] = Ratio of activity at oxytocin receptor in rat uterus to vasopressor activity in rat
[6] = Ratio of activity at oxytocin receptor in rat uterus to antidiuretic activity in rat; parameters: species or system Urine
Rattus norvegicus [7] = organism: Rattus norvegicus; test: Vasopressor activity in rat; format: ADME, organism-based; details: in vivo
[8] = biological target: T1, Oxytocin receptor (Rattus norvegicus); test: Activity at oxytocin receptor in rat mammary strip
Rattus norvegicus [9] = organism: Rattus norvegicus; test: Oxytocic activity in rat assessed as milk ejection; format: functional

Activity [1] [U/mg] | Activity [2] [U/mg] | Ratio [3] | Activity (Rattus norvegicus [4]) [U/mg] | Activity (Rattus norvegicus [7]) [U/mg] | Activity [8] [U/mg] | Structure (SMILES) | Activity (Oryctolagus cuniculus) [U/mg] | Ratio [5] | Ratio [6] | Activity (Rattus norvegicus [9]) [U/mg]
520 | 486 | > 7 | 4 | – | – | CC[C@H](C)[C@@H]1NC(=O)[C@H](Cc2ccc(O)cc2)NC(=O)[C@@H](N)CSSC[C@@H](C(=O)N2CCC[C@H]2C(=O)N[C@@H](CC(C)C)C(=O)NCC(N)=O)NC(=O)[C@H](CC(N)=O)NC(=O)[C@H](CCC(N)=O)NC1=O [OXYTOCIN] | 474 | – | – | –
734 | – | – | 9.3 | 2.95 | 177 | CC[C@H](C)[C@@H]1NC(=O)[C@H](Cc2ccc(O)cc2)NC(=O)[C@@H](N)CCSC[C@@H](C(=O)N2CCC[C@H]2C(=O)N[C@@H](CC(C)C)C(=O)NCC(N)=O)NC(=O)[C@H](CC(N)=O)NC(=O)[C@H](CCC(N)=O)NC1=O (H-[Abu(4-yl)]YIQNCPLG-NH2; thioether 1-6) | – | 249 | 79 | –
1900 | 921 | 4 | 24.1 | 17.5 | 581 | CC[C@H](C)[C@@H]1NC(=O)[C@H](Cc2ccc(O)cc2)NC(=O)CCCSC[C@@H](C(=O)N2CCC[C@H]2C(=O)N[C@@H](CC(C)C)C(=O)NCC(N)=O)NC(=O)[C@H](CC(N)=O)NC(=O)[C@H](CCC(N)=O)NC1=O (YIQNCPLG-NH2; linker N-5 via X2) | – | 108 | 79 | –

Further lines, the compound ahead of its results:

Structure (SMILES) | Activity [1] [U/mg] | Activity [2] [U/mg] | Ratio [3] | Activity (Rattus norvegicus [4]) [U/mg] | Activity (Rattus norvegicus [7]) [U/mg] | Activity [8] [U/mg] | Activity (Oryctolagus cuniculus) [U/mg] | Ratio [5] | Ratio [6] | Activity (Rattus norvegicus [9]) [U/mg]
CC[C@H](C)[C@@H]1NC(=O)[C@H](Cc2ccc(O)cc2)NC(=O)CCSSC[C@@H](C(=O)N2CCC[C@H]2C(=O)N[C@@H](CC(C)C)C(=O)NCC(N)=O)NC(=O)[C@H](CC(N)=O)NC(=O)[C@H](CCC(N)=O)NC1=O [DEMOXYTOCIN] | – | – | – | 19 | 1.44 | – | 541 | 558 | 42 | –
CC[C@H](C)[C@@H]1NC(=O)[C@H](Cc2ccc(O)cc2)NC(=O)[C@@H](N)CSSC[C@@H](C(=O)N2CCC[C@H]2C(=O)N[C@@H](CC(C)C)C(=O)NCC(N)=O)NC(=O)[C@H](CC(N)=O)NC(=O)[C@H]([C@@H](C)O)NC1=O (H-CYITNCPLG-NH2; disulfide 1-6) | 923 | 719 | > 4 | 1.8 | 0.43 | – | 543 | 2146 | 513 | –
CC[C@H](C)[C@@H]1NC(=O)[C@H](Cc2ccc(O)cc2)NC(=O)CCSSC[C@H](C(=O)N2CCC[C@H]2C(=O)N[C@@H](CC(C)C)C(=O)NCC(N)=O)NC(=O)[C@H](CC(N)=O)NC(=O)[C@H](CCC(N)=O)NC1=O | – | 760 | – | – | – | – | – | – | – | –
CC[C@H](C)[C@@H]1NC(=O)[C@H](Cc2ccc(O)cc2)NC(=O)CCSSC[C@@H](C(=O)N2CCC[C@H]2C(=O)N[C@@H](CC(C)C)C(=O)NCC(N)=O)NC(=O)[C@H](CC(N)=O)NC(=O)[C@H]([C@@H](C)O)NC1=O ([Mpa]YITNCPLG-NH2; disulfide 1-6) | 149 | 242 | – | 0.9 | < 0.1 | – | 385 | – | 165 | –
CC[C@H](C)[C@@H]1NC(=O)[C@H](Cc2ccc(O)cc2)NC(=O)[C@@H](O)CSSC[C@@H](C(=O)N2CCC[C@H]2C(=O)N[C@@H](CC(C)C)C(=O)NCC(N)=O)NC(=O)[C@H](CC(N)=O)NC(=O)[C@H](CCC(N)=O)NC1=O (YIQNCPLG-NH2; linker N-5 via X1) | 1280 | 868 | 2.45 | 16.6 | 14.7 | 363 | – | 50 | 77 | 694
CC[C@H](C)[C@@H]1NC(=O)[C@H](Cc2ccc(O)cc2)NC(=O)[C@@H](O)CSSC[C@@H](C(=O)N2CCC[C@H]2C(=O)N[C@@H](CC(C)C)C(=O)NCC(N)=O)NC(=O)[C@H](CC(N)=O)NC(=O)[C@H]([C@@H](C)O)NC1=O (YITNCPLG-NH2; linker N-5 via X1) | 4180 | 937 | 8 | 5.3 | 4.92 | 378 | – | 849 | 788 | 808
